Data taken from patent publication US12539292B2, “BRM targeting compounds and associated methods of use” (Arvinas Operations, Inc., priority 2018, dated 2026).
Where two headings read alike, the source gives them in different places. Blank lines part the entries; values can stand above or below the molecule they belong to.

Target: T1, BRM (Homo sapiens, UniProt P51531)
T1 construct: In-Cell Western Screen of BRM Degradation in SW1573 Cells; endogenous in cells; host or cells: SW1573
Test: In-cell Western screen of BRM degradation in SW1573 cells (Dmax and DC50)
Format: cell-based
Details: BRM degradation, SW1573 cells; for Dmax: read-out: Dmax (% degraded)
In short: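 After adhering overnight, cells received compound for 18-20 hours. They were then washed in cold DPBS, fixed with 4% PFA for 20 min and permeabilized for 30 min. Blocking and fluorescent secondary staining followed before imaging.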

T1 sequence (P51531 whole entry): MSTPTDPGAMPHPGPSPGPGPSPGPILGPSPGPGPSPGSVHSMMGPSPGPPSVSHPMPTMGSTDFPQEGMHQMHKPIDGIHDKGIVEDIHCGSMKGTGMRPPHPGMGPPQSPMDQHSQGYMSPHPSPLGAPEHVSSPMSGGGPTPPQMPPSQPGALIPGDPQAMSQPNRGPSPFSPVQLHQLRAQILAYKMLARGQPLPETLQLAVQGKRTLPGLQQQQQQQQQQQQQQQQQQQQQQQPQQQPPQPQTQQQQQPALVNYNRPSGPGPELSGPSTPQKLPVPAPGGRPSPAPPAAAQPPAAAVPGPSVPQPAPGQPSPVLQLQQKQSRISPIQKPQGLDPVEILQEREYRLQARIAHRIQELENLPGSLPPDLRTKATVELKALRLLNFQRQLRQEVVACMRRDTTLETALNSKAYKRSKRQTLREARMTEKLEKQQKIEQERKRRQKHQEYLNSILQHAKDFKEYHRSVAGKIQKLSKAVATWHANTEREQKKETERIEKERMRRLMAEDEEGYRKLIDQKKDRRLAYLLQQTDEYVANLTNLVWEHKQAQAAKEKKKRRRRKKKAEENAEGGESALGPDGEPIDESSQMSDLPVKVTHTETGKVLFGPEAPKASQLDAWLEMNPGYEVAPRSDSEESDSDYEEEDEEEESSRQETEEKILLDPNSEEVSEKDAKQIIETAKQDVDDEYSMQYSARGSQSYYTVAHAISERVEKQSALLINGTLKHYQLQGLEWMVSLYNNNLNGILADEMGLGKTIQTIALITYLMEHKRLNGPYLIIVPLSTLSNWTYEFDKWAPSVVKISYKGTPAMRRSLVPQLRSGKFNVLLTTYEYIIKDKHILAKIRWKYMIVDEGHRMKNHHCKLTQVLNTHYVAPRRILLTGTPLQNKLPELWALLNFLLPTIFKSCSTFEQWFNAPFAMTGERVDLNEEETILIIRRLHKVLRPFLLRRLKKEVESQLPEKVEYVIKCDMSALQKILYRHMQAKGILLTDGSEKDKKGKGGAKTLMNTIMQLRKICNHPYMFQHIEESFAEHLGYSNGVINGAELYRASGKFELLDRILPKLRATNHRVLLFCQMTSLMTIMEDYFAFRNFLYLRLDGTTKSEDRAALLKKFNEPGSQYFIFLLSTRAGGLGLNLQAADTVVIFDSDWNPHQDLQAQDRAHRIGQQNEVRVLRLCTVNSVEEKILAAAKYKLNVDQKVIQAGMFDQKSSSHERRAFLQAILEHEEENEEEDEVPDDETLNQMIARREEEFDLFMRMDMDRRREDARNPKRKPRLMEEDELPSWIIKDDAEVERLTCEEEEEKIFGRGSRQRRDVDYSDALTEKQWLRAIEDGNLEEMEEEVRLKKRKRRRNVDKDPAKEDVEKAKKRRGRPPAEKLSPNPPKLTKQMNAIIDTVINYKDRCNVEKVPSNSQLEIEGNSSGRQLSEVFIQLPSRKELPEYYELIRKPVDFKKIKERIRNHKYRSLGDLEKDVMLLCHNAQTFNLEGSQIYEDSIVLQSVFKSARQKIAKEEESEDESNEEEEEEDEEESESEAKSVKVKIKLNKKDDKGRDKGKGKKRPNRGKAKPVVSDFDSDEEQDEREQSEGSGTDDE

- DC50 (read-out: DC50): > 30 nM
SMILES: Cc1ncsc1-c1ccc([C@H](C)NC(=O)[C@@H]2C[C@@H](O)CN2C(=O)[C@H](c2cc(N3CCC4(CCN(CC5CCN(C[C@H]6C[C@H](Oc7cc(N8C9CCC8CN(c8cc(-c%10ccccc%10O)nnc8N)C9)ccn7)C6)CC5)CC4)CC3)no2)C(C)C)cc1 [compound 688, (2S,4R)-1-((2S)-2-(3-(9-((1-(((1r,3r)-3-((4-(3-(3-amino-6-(2-hydroxyphenyl)pyridazin-4-yl)-3,8-diazabicyclo[3.2.1]octan-8-yl)pyridin-2-yl)oxy)cyclobutyl)methyl)piperidin-4-yl)methyl)-3,9-diazaspiro[5.5]undecan-3-yl)isoxazol-5-yl)-3-methylbutanoyl)-4-hydroxy-N-((S)-1-(4-(4-methylthiazol-5-yl)phenyl)ethyl)pyrrolidine-2-carboxamide]

SMILES: Cc1ncsc1-c1ccc([C@H](C)NC(=O)[C@@H]2C[C@@H](O)CN2C(=O)[C@@H](c2cc(N3CCC4(CCN(CC5CCN(C[C@H]6C[C@H](Oc7cc(N8C9CCC8CN(c8cc(-c%10ccccc%10O)nnc8N)C9)ccn7)C6)CC5)CC4)CC3)no2)C(C)C)cc1 [compound 689, (2S,4R)-1-((2R)-2-(3-(9-((1-(((1r,3r)-3-((4-(3-(3-amino-6-(2-hydroxyphenyl)pyridazin-4-yl)-3,8-diazabicyclo[3.2.1]octan-8-yl)pyridin-2-yl)oxy)cyclobutyl)methyl)piperidin-4-yl)methyl)-3,9-diazaspiro[5.5]undecan-3-yl)isoxazol-5-yl)-3-methylbutanoyl)-4-hydroxy-N-((S)-1-(4-(4-methylthiazol-5-yl)phenyl)ethyl)pyrrolidine-2-carboxamide]
- DC50 (read-out: DC50): < 2.5 nM
- Dmax: > 75%

SMILES: Cc1ncsc1-c1ccc([C@H](C)NC(=O)[C@@H]2C[C@@H](O)CN2C(=O)[C@@H](c2cc(N3CCC(CN4CCC(O[C@H]5C[C@H](Oc6cc(N7C8CCC7CN(c7cc(-c9ccccc9O)nnc7N)C8)ccn6)C5)CC4)CC3)no2)C(C)C)c(O)c1 [compound 690, (2S,4R)-1-((2R)-2-(3-(4-((4-((1r,3r)-3-((4-(3-(3-amino-6-(2-hydroxyphenyl)pyridazin-4-yl)-3,8-diazabicyclo[3.2.1]octan-8-yl)pyridin-2-yl)oxy)cyclobutoxy)piperidin-1-yl)methyl)piperidin-1-yl)isoxazol-5-yl)-3-methylbutanoyl)-4-hydroxy-N-((S)-1-(2-hydroxy-4-(4-methylthiazol-5-yl)phenyl)ethyl)pyrrolidine-2-carboxamide]
- DC50 (read-out: DC50): < 2.5 nM
- Dmax: > 75%

SMILES: Cc1ncsc1-c1ccc([C@H](C)NC(=O)[C@@H]2C[C@@H](O)CN2C(=O)[C@@H](c2cc(N3CCC(CN4CCC(OC5CC(Oc6cc(N7C8CC[C@@H]7CN(c7cc(-c9ccccc9O)nnc7N)C8)ccn6)C5)CC4)CC3)no2)C(C)C)cc1O (stereo partly drawn) [compound 691, (2S,4R)-1-((2R)-2-(3-(4-((4-((1r,3r)-3-((4-(3-(3-amino-6-(2-hydroxyphenyl)pyridazin-4-yl)-3,8-diazabicyclo[3.2.1]octan-8-yl)pyridin-2-yl)oxy)cyclobutoxy)piperidin-1-yl)methyl)piperidin-1-yl)isoxazol-5-yl)-3-methylbutanoyl)-4-hydroxy-N-((S)-1-(3-hydroxy-4-(4-methylthiazol-5-yl)phenyl)ethyl)pyrrolidine-2-carboxamide]
- Dmax (% degraded): A (A > 75)
- DC50 (read-out: DC50): < 2.5 nM

SMILES: Cc1ncsc1-c1ccc([C@H](C)NC(=O)[C@@H]2C[C@@H](O)CN2C(=O)C(c2cc(N3CCC(C(C)(C)N4CCC(O[C@H]5C[C@H](Oc6cc(N7C8CCC7CN(c7cc(-c9ccccc9O)nnc7N)C8)ccn6)C5)CC4)CC3)no2)C(C)C)cc1 (stereo partly drawn) [compound 692, (2S,4R)-1-(2-(3-(4-(2-(4-((1r,3r)-3-((4-(3-(3-amino-6-(2-hydroxyphenyl)pyridazin-4-yl)-3,8-diazabicyclo[3.2.1]octan-8-yl)pyridin-2-yl)oxy)cyclobutoxy)piperidin-1-yl)propan-2-yl)piperidin-1-yl)isoxazol-5-yl)-3-methylbutanoyl)-4-hydroxy-N-((S)-1-(4-(4-methylthiazol-5-yl)phenyl)ethyl)pyrrolidine-2-carboxamide]
- DC50 (read-out: DC50): < 2.5 nM
- Dmax: > 75%

SMILES: Cc1ncsc1-c1ccc([C@H](C)NC(=O)[C@@H]2C[C@@H](O)CN2C(=O)[C@@H](c2cc(N3CCC(CN4CCC(O[C@H]5C[C@H](Oc6cc(N7CCN(c8cc(-c9ccccc9O)nnc8N)CC7)ccn6)C5)CC4)CC3)no2)C(C)C)cc1 [compound 693, (2S,4R)-1-((R)-2-(3-(4-((4-((1r,3r)-3-((4-(4-(3-amino-6-(2-hydroxyphenyl)pyridazin-4-yl)piperazin-1-yl)pyridin-2-yl)oxy)cyclobutoxy)piperidin-1-yl)methyl)piperidin-1-yl)isoxazol-5-yl)-3-methylbutanoyl)-4-hydroxy-N-((S)-1-(4-(4-methylthiazol-5-yl)phenyl)ethyl)pyrrolidine-2-carboxamide]
- DC50: < 2.5 nM

- DC50 (read-out: DC50): > 30 nM
SMILES: Cc1ncsc1-c1ccc([C@H](C)NC(=O)[C@@H]2C[C@@H](O)CN2C(=O)[C@H](c2cc(N3CCC4(CC3)CN(CC3CCN(C[C@H]5C[C@H](Oc6cc(N7C8CCC7CN(c7cc(-c9ccccc9O)nnc7N)C8)ccn6)C5)CC3)C4)no2)C(C)C)cc1 [compound 694, (2S,4R)-1-((2S)-2-(3-(2-((1-(((1r,3r)-3-((4-(3-(3-amino-6-(2-hydroxyphenyl)pyridazin-4-yl)-3,8-diazabicyclo[3.2.1]octan-8-yl)pyridin-2-yl)oxy)cyclobutyl)methyl)piperidin-4-yl)methyl)-2,7-diazaspiro[3.5]nonan-7-yl)isoxazol-5-yl)-3-methylbutanoyl)-4-hydroxy-N-((S)-1-(4-(4-methylthiazol-5-yl)phenyl)ethyl)pyrrolidine-2-carboxamide]

SMILES: Cc1ncsc1-c1ccc([C@H](C)NC(=O)[C@@H]2C[C@@H](O)CN2C(=O)[C@@H](c2cc(N3CCC4(CC3)CN(CC3CCN(C[C@H]5C[C@H](Oc6cc(N7C8CCC7CN(c7cc(-c9ccccc9O)nnc7N)C8)ccn6)C5)CC3)C4)no2)C(C)C)cc1 [compound 695, (2S,4R)-1-((2R)-2-(3-(2-((1-(((1r,3r)-3-((4-(3-(3-amino-6-(2-hydroxyphenyl)pyridazin-4-yl)-3,8-diazabicyclo[3.2.1]octan-8-yl)pyridin-2-yl)oxy)cyclobutyl)methyl)piperidin-4-yl)methyl)-2,7-diazaspiro[3.5]nonan-7-yl)isoxazol-5-yl)-3-methylbutanoyl)-4-hydroxy-N-((S)-1-(4-(4-methylthiazol-5-yl)phenyl)ethyl)pyrrolidine-2-carboxamide]
- DC50 (read-out: DC50): < 2.5 nM
- Dmax: > 75%

SMILES: Cc1ncsc1-c1ccc([C@H](C)NC(=O)[C@@H]2C[C@@H](O)CN2C(=O)[C@H](c2cc(N3CCC(CN4CCC(O[C@H]5C[C@H](Oc6cc(N7C8CCC7CN(c7cc(-c9ccccc9O)nnc7N)C8)ccn6)C5)CC4)CC3)no2)C(C)C)c(O)c1 [compound 696, (2S,4R)-1-((2S)-2-(3-(4-((4-((1r,3r)-3-((4-(3-(3-amino-6-(2-hydroxyphenyl)pyridazin-4-yl)-3,8-diazabicyclo[3.2.1]octan-8-yl)pyridin-2-yl)oxy)cyclobutoxy)piperidin-1-yl)methyl)piperidin-1-yl)isoxazol-5-y1)-3-methylbutanoyl)-4-hydroxy-N-((S)-1-(2-hydroxy-4-(4-methylthiazol-5-yl)phenyl)ethyl)pyrrolidine-2-carboxamide]
- DC50 (read-out: DC50): > 30 nM
